Measured values: patent publication US8906865B2, “Treatment of inflammation and/or endotoxic shock” (ISIS Innovation Limited, priority 2007, dated 2014)

Tested on: C57B16/J mice, zymosan-induced peritonitis
Assay: Zymosan-induced peritonitis in mice
Type: in vivo, mouse
Design: Reduction of MCP-1 in peritoneal lavage fluid (FIG. 7F) / Reduction of KC in peritoneal lavage fluid (FIG. 7F) / Reduction of TNFα in peritoneal lavage fluid (FIG. 7F) / Reduction of IL-1β in peritoneal lavage fluid (FIG. 7F) / Reduction of IL-6 in peritoneal lavage fluid (FIG. 7F): concentration or dose not given beside the values
Conditions: for Protection in vivo as judged by monocyte and neutrophil levels (FIG. 7C-D): same dose and time as C15
Method: FIGS. 7A and 7B—C57B16/J mice were dosed i.p with PBS or chemerin15 (0.32 ng/kg) followed by injection with PBS or zymosan (10 μg, ˜2×10^6 particles per cavity) 1 h later. Peritoneal exudate cells were harvested by peritoneal lavage at multiple time points (FIGS. 7A and 7B; 5-6 mice/treatment) or after 4 h (FIGS. 7C-7E; 6-15 mice/group). FIGS. 7C-7E—total cell numbers in lavage fluid were quantified and cellular composition (neutrophils vs mononuclear phagocytes) determined using FACS analysis. Cells were blocked with 2.4G2 anti-FcγRII/III and stained with Ly-6G-PE and 7/4-FITC. Gates were constructed around two populations, the neutrophils (N; 7/4high, Ly-6Ghigh) and inflammatory monocytes (Mo; 7/4high, Ly-6Glow). FIG. 7E—representative FACS plots are shown for each treatment group at 4 h post-zymosan. FIG. 7F—peritoneal lavage fluid was assayed for TNFα and KC by ELISA and IL-6, IL-1β and MCP-1 by Luminex assay. C15; Chemerin15, Z; Zymosan. ***, P<0.001; **, P<0.01 ** relative to zymosan-treated animals (Student's t test). FIG. 7G—Mice (6-8/treatment) were dosed i.p with zymosan (10 μg) and with C15 (8 pg) or PBS either 1 h beforehand (C15 pre-treatment) or 2 h later (C15 post-treatment). Peritoneal lavage was carried out 4 h post-zymosan challenge. Reference in this figure to the peptide C15 refers to the peptide described previously as C15m;
More specifically, male C57B16/J mice (8-12 weeks) were injected intra-peritoneally with 0.5 ml PBS or 0.5 ml Chemerin15-mouse (0.32 ng/kg) followed by injection with 0.5 ml PBS or Zymosan (2×10^6 particles per cavity) an hour later. After 4 hours animals were sacrificed and peritoneal cavities washed with 5 ml PBS-3 mM EDTA. Total cell counts were obtained using Trypan blue exclusion test. For determination of cellular composition (Neutrophils vs mononuclear phagocytes), cells were blocked with 2.4G2 mAB for 5 mins and stained with PE-conjugated anti-mouse Ly-6G and FITC-conjugated anti-mouse 7/4 mAB for 10 mins. Cells were fixed in 1% formaldehyde prior to FACS analysis with CellQuest software. Gates were constructed around two populations, the neutrophils (N; 7/4^high, Ly-6G^high) and inflammatory monocytes (Mo; 7/4^high). C15 refers to Chemerin15-mouse. Z refers to Zymosan. p<0.01 **; p<0.05 * relative to Zymosan-treated.
Neutrophil (7/4^high, Ly-6G^high), monocyte (7/4^high, Ly-6G^low) and resident macrophage populations (7/4^low, Ly-6G^low) were determined according to Gordon S and Taylor P R Nat Rev Immunol. 2005; 5(12):953; Taylor P R et al. Eur J Immunol. August 2003; 33(8):2090-2097; and Taylor P R et al. Eur J Immunol. July 2005; 35(7):2163-2174.
The above result was further investigated. To determine the anti-inflammatory properties of the C15 peptide in vivo a time-course experiment was performed extending over 48 h. Neutrophil (7/4high, Ly-6Ghigh) and monocyte (7/4high, Ly-6Glow) populations in peritoneal lavage fluid were determined by FACS analysis according to published protocols (Taylor, P. R. et al., (2005). Eur J Immunol 35:2163-2174; Taylor, P. R., (2003). Eur J Immunol 33:2090-2097). Administration of zymosan into the mouse peritoneal cavity produced a time-dependent extravasation of inflammatory cells into the peritoneal cavity, which followed the typical profile of an acute inflammatory response (FIG. 7A-B, solid line). Neutrophils were the first leukocytes to infiltrate the cavity, detectable at 2 h post-zymosan with peak neutrophilia occurring at 4 h (1.95×10^6 cells). Monocyte influx into the inflamed peritoneal cavity was first detectable after 4 h (0.69×10^6 cells), peaking at 24 h post-zymosan injection (1.25×10^6 cells) and declining thereafter. Pre-treatment with C15 at a dose of 8 pg/mouse (≈0.32 ng/kg) 1 h prior to zymosan challenge brought the peak neutrophilia forward to 2 h with approximately 50% the magnitude of that of zymosan challenged mice (reduced from 1.25×10^6 to 0.62×10^6 cells; FIG. 7A, dotted line). […]

[1] = 8 pg/mouse 1 h before zymosan, 4 h post-zymosan
[2] = 0.32 ng/kg (8 pg/mouse) i.p. 1 h before zymosan, 4 h
[3] = C15 2 h post-zymosan, lavage 4 h post-zymosan

With “AGEDPHGYALPGQAA (Mutant C15) [C15-M, control peptide, mutant C15 (F148A & F153A), reference compound]” as the sequence, how does the “Protection in vivo as judged by monocyte and neutrophil levels (FIG. 7C-D)” value read?
Its value is “not be protective”.

Which results are given for “AGEDPHGYFLPGQFA (listed as Mus sp.) [C15]”?
Suppression of neutrophil infiltration (FIG. 7A) (8 pg/mouse 1 h before zymosan, 2 h post-zymosan): 50%; Suppression of neutrophil infiltration (FIG. 7A) [1]: 66%; Suppression of peritoneal monocytes (FIG. 7B) [1]: 63%; Suppression of peritoneal monocytes (FIG. 7B) (8 pg/mouse 1 h before zymosan, 8 h post-zymosan): 61%; Suppression of neutrophil infiltration (FIG. 7A) (8 pg/mouse 1 h before zymosan, 24 h post-zymosan): 50%; Suppression of peritoneal monocytes (FIG. 7B) (8 pg/mouse 1 h before zymosan, 48 h post-zymosan): 64%; Peritoneal neutrophils at 2 h (peak neutrophilia under C15) (8 pg/mouse 1 h before zymosan, zymosan alone 1.25×10^6): 0.62×10^6 cells; Time of peak neutrophilia (8 pg/mouse 1 h before zymosan, zymosan alone 4 h): 2 h; Reduction of Zymosan-elicited monocyte recruitment (FIG. 6) [2]: 42%; Reduction of Zymosan-elicited neutrophil recruitment (FIG. 6) [2]: 52%; Levels of TNFα in zymosan-treated mice (FIG. 6) (0.32 ng/kg i.p. 1 h before zymosan): reduced; Rate of monocyte influx into the inflamed cavity (2-4 h post-zymosan, zymosan alone 0.51×10^6/h): 180000 h⁻¹; Reduction of IL-1β in peritoneal lavage fluid (FIG. 7F) (4 h post-zymosan): 67%; Reduction of IL-6 in peritoneal lavage fluid (FIG. 7F) (4 h post-zymosan): 67%; Reduction of KC in peritoneal lavage fluid (FIG. 7F) (4 h post-zymosan): 38%; Reduction of MCP-1 in peritoneal lavage fluid (FIG. 7F) (4 h post-zymosan): 59%; Reduction of TNFα in peritoneal lavage fluid (FIG. 7F) (4 h post-zymosan): 51%; Decrease in monocyte levels (FIG. 7D) (C15 1 h prior to zymosan, 4 h): 62%; Decrease in neutrophil numbers (FIG. 7C) (C15 1 h prior to zymosan, 4 h): 63%; Monocyte levels (FIG. 7D) (C15 1 h prior to zymosan, 4 h, zymosan alone 0.69×10^6): 0.30×10^6; Neutrophil numbers (FIG. 7C) (C15 1 h prior to zymosan, 4 h, zymosan alone 1.9×10^6): 0.78×10^6; Decrease in monocyte recruitment, C15 post-treatment (FIG. 7G) [3]: 42%; Decrease in neutrophil recruitment, C15 post-treatment (FIG. 7G) [3]: 60%; Monocyte number, C15 post-treatment (FIG. 7G) (C15 2 h post-zymosan, lavage 4 h post-zymosan, zymosan alone 0.69×10^6): 0.42×10^6 cells; Neutrophil number, C15 post-treatment (FIG. 7G) (C15 2 h post-zymosan, lavage 4 h post-zymosan, zymosan alone 1.9×10^6): 0.83×10^6 cells; Dose with efficacy against sterile peritonitis in mice (mouse, in vivo): 0.00032 µg/kg; Dose giving maximal reduction in zymosan-elicited neutrophil and monocyte recruitment (single i.p. dose, 4 h post-zymosan): 8 pg/mouse

For “GLFHDQAGPPAGYEF (Scrambled C15) [C15-S, control peptide, scrambled C15, reference compound]”, which “Protection in vivo as judged by monocyte and neutrophil levels (FIG. 7C-D)” value is on record?
The value was “not be protective”.
